Assay results from patent publication US20240158446A1, “CYCLIC COMPOUND HAVING SELECTIVE INHIBITORY ACTION ON KRAS OVER HRAS AND NRAS” (CHUGAI SEIYAKU KABUSHIKI KAISHA, priority 2021, published 2024).
*1 amine or outer side, *2 acyl side, *3 side chain or, on linkers, in order; H or OH if unused. Where a SMILES comes first, the peptide text is derived from it. Bridges are numbered along the chain shown (N, C = ends). [ ]: non-standard residue; d: D form. The star is where a group is joined. X47 = CC(C)(C)CCN([C@@H](Cc1ccc(C(F)(F)F)cc1)C(=O)[*:2])[*:1]; hPhe(3-Cl-4-CF3) = N[C@@H](CCc1ccc(C(F)(F)F)c(Cl)c1)C(=O)O; NMeGly(cPent) = CN[C@H](C(=O)O)C1CCCC1; NMeD = CN[C@@H](CC(=O)O)C(=O)O; NMeL = CN[C@@H](CC(C)C)C(=O)O; Morpholide = C1CN(*)CCO1; Ac5c = NC1(C(=O)O)CCCC1; Sar = CNCC(=O)O

What was measured:
[1] = molecular target: GDP-bound HRAS wild-type protein (Homo sapiens, UniProt P01112); test: Binding to HRAS by surface plasmon resonance (SPR), Single Cycle Kinetics; conditions: for HRAS/KRAS (ratio of KD value with respect to GDP-bound HRAS wild-type protein to KD value with respect to KRAS): SPR KD ratio HRAS/KRAS, class symbols
Chain of GDP-bound HRAS wild-type protein (P01112 whole entry): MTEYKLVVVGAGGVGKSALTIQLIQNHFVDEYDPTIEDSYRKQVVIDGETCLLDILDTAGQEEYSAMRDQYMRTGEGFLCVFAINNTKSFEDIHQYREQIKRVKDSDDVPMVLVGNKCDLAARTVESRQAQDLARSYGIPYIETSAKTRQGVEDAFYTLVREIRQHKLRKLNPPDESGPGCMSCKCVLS

[2] = molecular target: GDP-bound NRAS wild-type protein (Homo sapiens, UniProt P01111); test: Binding to NRAS by surface plasmon resonance (SPR), Single Cycle Kinetics; conditions: for NRAS/KRAS (ratio of KD value with respect to GDP-bound NRAS wild-type protein to KD value with respect to KRAS): SPR KD ratio NRAS/KRAS, class symbols
Chain of GDP-bound NRAS wild-type protein (P01111 whole entry): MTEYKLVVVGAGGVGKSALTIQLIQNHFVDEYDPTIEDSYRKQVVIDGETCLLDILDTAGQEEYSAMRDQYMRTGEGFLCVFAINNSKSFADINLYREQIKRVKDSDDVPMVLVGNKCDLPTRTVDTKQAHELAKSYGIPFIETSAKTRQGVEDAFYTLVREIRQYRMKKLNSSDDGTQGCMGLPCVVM

[3] = SPR, GDP-bound HRAS wild-type protein vs GDP-bound KRAS wild-type protein
[4] = SPR, GDP-bound NRAS wild-type protein vs GDP-bound KRAS wild-type protein

Row | Structure (SMILES) | HRAS/KRAS (ratio of KD value for HRAS to KD value for KRAS) [1, 3] | NRAS/KRAS (ratio of KD value for NRAS to KD value for KRAS) [2, 4] | further results
1 | CCO[C@@H]1C[C@H]2C(=O)NC3(CCC3)C(=O)N(C)[C@@H](C3CCCC3)C(=O)N(C)[C@H](C(=O)N3CCOCC3)CC(=O)N(C)[C@@H](CC3CC3)C(=O)N[C@@H]([C@@H](C)CC)C(=O)N(C)CC(=O)N(C)[C@H]3C/C=C\CCN(C3=O)[C@@H](Cc3ccc(F)cc3C)C(=O)N(C)CC(=O)N[C@@H](CCc3cc(F)c(C(F)(F)F)c(F)c3)C(=O)N2C1 [PP1495] | – | – | HRAS/KRAS (ratio of KD value for HRAS to KD value for KRAS) ([1]; SPR, GDP-bound HRAS wild-type protein vs GDP-bound KRAS wild-type protein, KD ratio class): B (a compound having 3 or more and less than 10 is denoted as B); NRAS/KRAS (ratio of KD value for NRAS to KD value for KRAS) ([2]; SPR, GDP-bound NRAS wild-type protein vs GDP-bound KRAS wild-type protein, KD ratio class): A (a compound having 10 or more and less than 20 is denoted as A)
2 | CCO[C@@H]1C[C@H]2C(=O)NC3(CCC3)C(=O)N(C)[C@@H](C3CCCC3)C(=O)N(C)[C@H](C(=O)N(C)C)CC(=O)N(C)[C@@H](CC(C)C)C(=O)N[C@@H]([C@@H](C)CC)C(=O)N(C)CC(=O)N(C)[C@H]3CCCCCN(C3=O)[C@@H](Cc3ccc(C(F)(F)F)cc3)C(=O)N(C)CC(=O)N[C@@H](CCc3cc(F)c(C(F)(F)F)c(F)c3)C(=O)N2C1 [PP0469] | – | – | HRAS/KRAS (ratio of KD value with respect to HRAS to KD value with respect to KRAS) [1, 3]: B (a compound having 3 or more and less than 10 is denoted as B); NRAS/KRAS (ratio of KD value with respect to NRAS to KD value with respect to KRAS) [2, 4]: B (a compound having 3 or more and less than 10 is denoted as B)
3 | CC[C@H](C)[C@@H]1NC(=O)[C@H](CC(C)C)N(C)C(=O)C[C@@H](C(=O)N2CCOCC2)N(C)C(=O)[C@H](C2CCCC2)N(C)C(=O)C2(CCC2)NC(=O)[C@@H]2[C@@H](OCCC(F)(F)F)CCN2C(=O)[C@H](CCc2cc(F)c(C(F)(F)F)c(F)c2)NC(=O)CN(C)C(=O)[C@H](Cc2ccc(C(F)(F)F)cc2)N2CCCCC[C@@H](C2=O)N(C)C(=O)CN(C)C1=O [PP1008] | B (a compound having 3 or more and less than 10 is denoted as B) | A (a compound having 10 or more and less than 20 is denoted as A) | –
4 | CC[C@H](C)[C@@H]1NC(=O)[C@H](CC(C)C)N(C)C(=O)C[C@@H](C(=O)N2CCOCC2)N(C)C(=O)[C@H](C2CCCC2)N(C)C(=O)C2(CCC2)NC(=O)[C@@H]2C[C@@H](O)CN2C(=O)[C@H](CCc2cc(F)c(C(F)(F)F)c(F)c2)NC(=O)CN(C)C(=O)[C@H](Cc2ccc(C(F)(F)F)cc2)N2CCCCC[C@@H](C2=O)N(C)C(=O)CN(C)C1=O [PP0871] | B (a compound having 3 or more and less than 10 is denoted as B) | B (a compound having 3 or more and less than 10 is denoted as B) | –
5 | CCO[C@@H]1C[C@H]2C(=O)NC3(CC(C)(C)C3)C(=O)N(C)[C@@H](C3CCCC3)C(=O)N(C)[C@H](C(=O)N(C)C)CC(=O)N(C)[C@@H](CC(C)C)C(=O)N[C@@H]([C@@H](C)CC)C(=O)N(C)CC(=O)N(C)[C@H]3C/C=C\CCN(C3=O)[C@@H](Cc3ccc4c(c3)CCC4(F)F)C(=O)N(C)CC(=O)N[C@@H](CCc3ccc(C(F)(F)F)c(OC)c3)C(=O)N2C1 [PP2695] | – | – | HRAS/KRAS (ratio of KD value with respect to GDP-bound HRAS wild-type protein to KD value with respect to KRAS) [1]: B (a compound having 3 or more and less than 10 is denoted as B); NRAS/KRAS (ratio of KD value with respect to GDP-bound NRAS wild-type protein to KD value with respect to KRAS) [2]: A (a compound having 10 or more and less than 20 is denoted as A)
6 | CCC[C@H]1C(=O)N[C@@H]([C@@H](C)CC)C(=O)N(C)CC(=O)N(C)[C@H]2C/C=C\CCN(C2=O)[C@@H](Cc2ccc(C(F)(F)F)cc2)C(=O)N(C)CC(=O)N[C@@H](CCc2ccc(C3CC3)c(C)c2)C(=O)N2C[C@H](OCC)C[C@H]2C(=O)NC2(CC(C)(C)C2)C(=O)N(C)[C@@H](C2CCCC2)C(=O)N(C)[C@H](C(=O)N(C)C)CC(=O)N1C [PP2855] | – | – | HRAS/KRAS (ratio of KD value with respect to GDP-bound HRAS wild-type protein to KD value with respect to KRAS) [1]: A (a compound having 10 or more and less than 20 is denoted as A); NRAS/KRAS (ratio of KD value with respect to GDP-bound NRAS wild-type protein to KD value with respect to KRAS) [2]: A (a compound having 10 or more and less than 20 is denoted as A)
7 | CCC[C@H]1C(=O)N[C@@H]([C@@H](C)CC)C(=O)N(C)CC(=O)N(C)[C@H]2C/C=C\CCN(C2=O)[C@@H](Cc2ccc(C(F)(F)F)cc2)C(=O)N(C)CC(=O)N[C@@H](CCc2cc(Cl)c(C(F)(F)F)c(Cl)c2)C(=O)N2C[C@H](OCC)C[C@H]2C(=O)NC2(CC(C)(C)C2)C(=O)N(C)[C@@H](C2CCCC2)C(=O)N(C)[C@H](C(=O)N(C)C)CC(=O)N1C [PP2859] | – | – | HRAS/KRAS (ratio of KD value with respect to GDP-bound HRAS wild-type protein to KD value with respect to KRAS) [1]: A (a compound having 10 or more and less than 20 is denoted as A); NRAS/KRAS (ratio of KD value with respect to GDP-bound NRAS wild-type protein to KD value with respect to KRAS) [2]: A (a compound having 10 or more and less than 20 is denoted as A)
8 | CCCN1C(=O)CN(C)C(=O)CN(C)C(=O)[C@H]([C@@H](C)CC)NC(=O)[C@@H]2CCCCOc3ccc(cc3)C[C@H]1C(=O)N(C)CC(=O)N[C@@H](CCc1cc(F)c(C(F)(F)F)c(F)c1)C(=O)N1C[C@H](OCC)C[C@H]1C(=O)NC1(CCCC1)C(=O)N(C)[C@@H](C1CCCC1)C(=O)N(C)[C@H](C(=O)N(C)C)CC(=O)N2C [PP0894] | C (A compound having a KD ratio of 0.1 or more and less than 3 is denoted as C) | C (A compound having a KD ratio of 0.1 or more and less than 3 is denoted as C) | –
9 | CCOC[C@H]1C(=O)N[C@@H]([C@@H](C)CC)C(=O)N(C)CC(=O)N(C)[C@H]2C/C=C\CCN(C2=O)[C@@H](Cc2ccc(C)c(F)c2)C(=O)N(C)CC(=O)N[C@@H](CCc2ccc(C(F)(F)F)c(OC)c2)C(=O)N2C[C@@H](C)C[C@H]2C(=O)NC2(CC(C)(C)C2)C(=O)N(C)[C@@H](C2CCCC2)C(=O)N(C)[C@H](C(=O)N(C)CC)CC(=O)N1C [PP2698] | – | – | HRAS/KRAS (ratio of KD value with respect to GDP-bound HRAS wild-type protein to KD value with respect to KRAS) [1]: A (a compound having 10 or more and less than 20 is denoted as A); NRAS/KRAS (ratio of KD value with respect to GDP-bound NRAS wild-type protein to KD value with respect to KRAS) [2]: A (a compound having 10 or more and less than 20 is denoted as A)
10 | CCO[C@@H]1C[C@H]2C(=O)NC3(CCC3)C(=O)N(C)[C@@H](C3CCCC3)C(=O)N(C)[C@H](C(=O)N(C)CC)CC(=O)N(C)[C@H]3CCCCCc4ccc(cc4)C[C@@H](C(=O)N(C)CC(=O)N[C@@H](CCc4cc(F)c(C(F)(F)F)c(F)c4)C(=O)N2C1)N1CC/C=C\C[C@@H](C1=O)N(C)C(=O)CN(C)C(=O)[C@H]([C@@H](C)CC)NC3=O (stereo in doubt) [PP2117] | A (a compound having 10 or more and less than 20 is denoted as A) | A (a compound having 10 or more and less than 20 is denoted as A) | –
11 | CCC[C@H]1C(=O)N[C@@H](C2CCCC2)C(=O)N(C)CC(=O)N(C)[C@H]2C/C=C\CCN(C2=O)[C@@H](Cc2ccc(C)cc2)C(=O)N(C)CC(=O)N[C@@H](CCc2ccc(C(F)(F)F)c(OC)c2)C(=O)N2C[C@H](OCC)C[C@H]2C(=O)NC2(CC(C)(C)C2)C(=O)N(C)[C@@H](CC(C)(C)C)C(=O)N(C)[C@H](C(=O)N(C)C)CC(=O)N1C [PP3005] | B (a compound having 3 or more and less than 10 is denoted as B) | A (a compound having 10 or more and less than 20 is denoted as A) | –
12 | CCO[C@@H]1C[C@H]2C(=O)NC3(CCC3)C(=O)N(C)[C@@H](C3CCCC3)C(=O)N(C)[C@H](C(=O)N3CCOCC3)CC(=O)N(C)[C@@H](CC(C)C)C(=O)N[C@@H]([C@H](C)CC)C(=O)N(C)CC(=O)N(C)[C@H]3CCCCCN(C3=O)[C@@H](Cc3ccc(C(F)(F)F)cc3)C(=O)N(C)CC(=O)N[C@@H](CCc3cc(F)c(C(F)(F)F)c(F)c3)C(=O)N2C1 [PP0815] | B (a compound having 3 or more and less than 10 is denoted as B) | B (a compound having 3 or more and less than 10 is denoted as B) | –
13 | CCO[C@@H]1C[C@H]2C(=O)NC3(CCC3)C(=O)N(C)[C@@H](C3CCCC3)C(=O)N(C)[C@H](C(=O)N3CCOCC3)CC(=O)N(C)[C@@H](COC3CC3)C(=O)N[C@@H]([C@@H](C)CC)C(=O)N(C)CC(=O)N(C)[C@H]3CCCCCN(C3=O)[C@@H](Cc3ccc(C(F)(F)F)cc3)C(=O)N(C)CC(=O)N[C@@H](CCc3cc(F)c(C(F)(F)F)c(F)c3)C(=O)N2C1 [PP0852] | B (a compound having 3 or more and less than 10 is denoted as B) | B (a compound having 3 or more and less than 10 is denoted as B) | –
14 | CCO[C@@H]1C[C@H]2C(=O)NC3(CCC3)C(=O)N(C)[C@@H](C3CCCC3)C(=O)N(C)[C@H](C(=O)N(C)C)CC(=O)N(C)[C@@H](CC)C(=O)N[C@@H]([C@@H](C)CC)C(=O)N3CCC[C@H]3C(=O)N(C)[C@H]3C/C=C\CCN(C3=O)[C@@H](Cc3ccc(C(F)(F)F)cc3)C(=O)N(C)CC(=O)N[C@@H](CCc3cc(F)c(C(F)(F)F)c(F)c3)C(=O)N2C1 [PP1056] | A (a compound having 10 or more and less than 20 is denoted as A) | A (a compound having 10 or more and less than 20 is denoted as A) | –
15 | CC[C@H](C)[C@@H]1NC(=O)[C@H](CC(C)C)N(C)C(=O)C[C@@H](C(=O)N2CCOCC2)N(C)C(=O)[C@H](C2CCCC2)N(C)C(=O)C2(CCCC2)NC(=O)[C@@H]2CCCN2C(=O)[C@H](CCc2ccc(C(F)(F)F)c(Cl)c2)NC(=O)CN(C)C(=O)[C@H](Cc2ccc(C(F)(F)F)cc2)N(CCC(C)(C)C)C(=O)CN(C)C(=O)CN(C)C1=O [PP0127] ([NMeL]I[Sar][Sar][X47][Sar][hPhe(3-Cl-4-CF3)]P[Ac5c][NMeGly(cPent)][NMeD]-Morpholide; lactam N-11) | C (A compound having a KD ratio of 0.1 or more and less than 3 is denoted as C) | C (A compound having a KD ratio of 0.1 or more and less than 3 is denoted as C) | –
